According to patent publication US10766894B2, “Aza-indazole compounds for use in tendon and/or ligament injuries” (NOVARTIS AG, priority 2016, dated 2020):

Tested on: mouse immortalized TT-D6 Scx-luciferase (ScxL) cell line; transcriptional activation of Scleraxis (Scx) gene
Assay: SCX-LUC in vitro assay (scleraxis promoter luciferase reporter)
Assay type: cell-based
Conditions: Mus musculus, 96 h; Examples table; TT-D6 Scx-luciferase cells, 1 ng/ml TGFβ1, four days; read-out: Scx-Luc (EC50 μM)

**Q.** `Cc1cc(S(=O)(=O)NC2CCCCC2O)ccc1-c1ccc2[nH]nc(N)c2n1` (centres unmarked) [Example 91, 4-(3-amino-1H-pyrazolo[4,3-b]pyridin-5-yl)-N-(2-hydroxycyclohexyl)-3-methylbenzenesulfonamide] was tested. Which EC50 did it give?
**A.** 1.81 µM

**Q.** How did the EC50 turn out when `COc1ccc(S(=O)(=O)Nc2ccc(-c3ccc4[nH]nc(N)c4n3)c(Cl)c2)cc1` [Example 5, N-(4-(3-amino-1H-pyrazolo[4,3-b]pyridin-5-yl)-3-chlorophenyl)-4-methoxybenzenesulfonamide] was run?
**A.** 0.909 µM

**Q.** For `Nc1n[nH]c2ccc(-c3ccc(S(=O)(=O)N4CC5CCCC5C4)cc3Cl)nc12` (centres unmarked) [Example 51, 5-(2-chloro-4-((hexahydrocyclopenta[c]pyrrol-2(1H)-yl)sulfonyl)phenyl)-1H-pyrazolo[4,3-b]pyridin-3-amine], which EC50 is on record?
**A.** 2.39 µM

**Q.** How did the EC50 turn out when `CC1(C)CCC(NS(=O)(=O)c2ccc(-c3ccc4[nH]nc(N)c4n3)c(Cl)c2)CC1` [Example 24, 4-(3-amino-1H-pyrazolo[4,3-b]pyridin-5-yl)-3-chloro-N-(4,4-dimethylcyclohexyl)benzenesulfonamide] was run?
**A.** 1.59 µM

**Q.** For `Nc1n[nH]c2ccc(-c3ccc(NS(=O)(=O)c4cccc(Cl)c4)cc3Cl)nc12` [Example 28, N-(4-(3-amino-1H-pyrazolo[4,3-b]pyridin-5-yl)-3-chlorophenyl)-3-chlorobenzenesulfonamide], which EC50 is on record?
**A.** 2.5 µM

**Q.** How did the EC50 turn out when `Nc1n[nH]c2ccc(-c3ccc(NS(=O)(=O)[C@H]4CCCC[C@H]4O)cc3Cl)nc12` [Example 14, (1S,2R)—N-(4-(3-amino-1H-pyrazolo[4,3-b]pyridin-5-yl)-3-chlorophenyl)-2-hydroxycyclohexane-1-sulfonamide] was run?
**A.** 1.12 µM

**Q.** With `Nc1n[nH]c2ccc(-c3ccc(NS(=O)(=O)c4ccc(C(F)(F)F)cc4)cc3Cl)nc12` [Example 78, N-(4-(3-amino-1H-pyrazolo[4,3-b]pyridin-5-yl)-3-chlorophenyl)-4-(trifluoromethyl)benzenesulfonamide] as the compound, how does the EC50 read?
**A.** 2.44 µM

**Q.** How did the EC50 turn out when `Cc1ccc(S(=O)(=O)Nc2ccc(-c3ccc4[nH]nc(N)c4n3)c(Cl)c2)cc1` [Example 25, N-(4-(3-amino-1H-pyrazolo[4,3-b]pyridin-5-yl)-3-chlorophenyl)-4-methylbenzenesulfonamide] was run?
**A.** 0.611 µM

**Q.** `Nc1n[nH]c2ccc(-c3ccc(NS(=O)(=O)c4ccc(OC(F)(F)F)cc4)cc3Cl)nc12` [Example 88, N-(4-(3-amino-1H-pyrazolo[4,3-b]pyridin-5-yl)-3-chlorophenyl)-4-(trifluoromethoxy)benzenesulfonamide] was tested. Which EC50 did it give?
**A.** 2.43 µM

**Q.** `Nc1n[nH]c2ccc(-c3ccc(NS(=O)(=O)c4cccc(F)c4)cc3Cl)nc12` [Example 41, N-(4-(3-amino-1H-pyrazolo[4,3-b]pyridin-5-yl)-3-chlorophenyl)-3-fluorobenzenesulfonamide] was tested. Which EC50 did it give?
**A.** 2.25 µM

**Q.** How did the EC50 turn out when `Cc1cc(S(=O)(=O)N[C@@H]2CCC[C@@H]2O)ccc1-c1ccc2[nH]nc(N)c2n1` [Example 20, 4-(3-amino-1H-pyrazolo[4,3-b]pyridin-5-yl)-N-((1R,2S)-2-hydroxycyclopentyl)-3-methylbenzenesulfonamide] was run?
**A.** 0.797 µM

**Q.** `Nc1n[nH]c2ccc(-c3ccc(S(=O)(=O)N4CC(F)(F)C4)cc3Cl)nc12` [Example 74, 5-(2-chloro-4-((3,3-difluoroazetidin-1-yl)sulfonyl)phenyl)-1H-pyrazolo[4,3-b]pyridin-3-amine] was tested. Which EC50 did it give?
**A.** 2.03 µM

**Q.** Which EC50 does the source give for `Nc1n[nH]c2ccc(-c3ccc(S(=O)(=O)N[C@H]4CCC[C@@H]4O)cc3Cl)nc12` [Example 94, 4-(3-amino-1H-pyrazolo[4,3-b]pyridin-5-yl)-3-chloro-N-((1S,2S)-2-hydroxycyclopentyl)benzenesulfonamide] here?
**A.** 0.026 µM

**Q.** How did the EC50 turn out when `Nc1n[nH]c2ccc(-c3ccc(S(=O)(=O)NCc4ccccc4)cc3Cl)nc12` [Example 73, 4-(3-amino-1H-pyrazolo[4,3-b]pyridin-5-yl)-N-benzyl-3-chlorobenzenesulfonamide] was run?
**A.** 3.53 µM

**Q.** With `Nc1n[nH]c2ccc(-c3ccc(S(=O)(=O)NC4CC(F)(F)C4)cc3Cl)nc12` [Example 4, 4-(3-amino-1H-pyrazolo[4,3-b]pyridin-5-yl)-3-chloro-N-(3,3-difluorocyclobutyl)benzenesulfonamide] as the compound, how does the EC50 read?
**A.** 0.444 µM

**Q.** How did the EC50 turn out when `Cc1cc(S(=O)(=O)N2CC(F)(F)CC2C(N)=O)ccc1-c1ccc2[nH]nc(N)c2n1` (centres unmarked) [Example 34, 1-((4-(3-amino-1H-pyrazolo[4,3-b]pyridin-5-yl)-3-methylphenyl)sulfonyl)-4,4-difluoropyrrolidine-2-carboxamide] was run?
**A.** 5.02 µM

**Q.** Which EC50 does the source give for `Nc1n[nH]c2ccc(-c3ccc(S(=O)(=O)N[C@@H]4CCC[C@H]4O)cc3Cl)nc12` [Example 29, 4-(3-amino-1H-pyrazolo[4,3-b]pyridin-5-yl)-3-chloro-N-((1R,2R)-2-hydroxycyclopentyl)benzenesulfonamide] here?
**A.** 1.91 µM

**Q.** How did the EC50 turn out when `Cc1cc(S(=O)(=O)N2CCC[C@H]2CO)ccc1-c1ccc2[nH]nc(N)c2n1` [Example 70, (S)-(1-((4-(3-amino-1H-pyrazolo[4,3-b]pyridin-5-yl)-3-methylphenyl)sulfonyl)pyrrolidin-2-yl)methanol] was run?
**A.** 0.762 µM

**Q.** How did the EC50 turn out when `Nc1n[nH]c2ccc(-c3ccc(S(=O)(=O)N[C@@H]4CC[C@H](O)C4)cc3Cl)nc12` [Example 23, 4-(3-amino-1H-pyrazolo[4,3-b]pyridin-5-yl)-3-chloro-N-((1R,3S)-3-hydroxycyclopentyl)benzenesulfonamide] was run?
**A.** 2.28 µM

**Q.** Which EC50 does the source give for `COc1ccc(S(=O)(=O)Nc2ccc(-c3ccc4[nH]nc(N)c4n3)c(Cl)c2)cc1NC(C)=O` [Example 61, N-(5-(N-(4-(3-amino-1H-pyrazolo[4,3-b]pyridin-5-yl)-3-chlorophenyl)sulfamoyl)-2-methoxyphenyl)acetamide] here?
**A.** 1.54 µM

**Q.** With `NC(=O)[C@H]1C[C@@H](F)CN1S(=O)(=O)c1ccc(-c2ccc3[nH]nc(N)c3n2)c(Cl)c1` [Example 55, (2R,4R)-1-((4-(3-amino-1H-pyrazolo[4,3-b]pyridin-5-yl)-3-chlorophenyl)sulfonyl)-4-fluoropyrrolidine-2-carboxamide] as the compound, how does the EC50 read?
**A.** 6.16 µM

**Q.** How did the EC50 turn out when `Cc1ccc(O)c(S(=O)(=O)Nc2ccc(-c3ccc4[nH]nc(N)c4n3)c(Cl)c2)c1` [Example 32, N-(4-(3-amino-1H-pyrazolo[4,3-b]pyridin-5-yl)-3-chlorophenyl)-2-hydroxy-5-methylbenzenesulfonamide] was run?
**A.** 1.94 µM

**Q.** How did the EC50 turn out when `Nc1n[nH]c2ccc(-c3ccc(S(=O)(=O)Nc4cccc(F)c4)cc3Cl)nc12` [Example 40] was run?
**A.** 0.416 µM

**Q.** How did the EC50 turn out when `Nc1n[nH]c2ccc(-c3ccc(S(=O)(=O)N[C@H]4CC[C@@H](O)CC4)cc3Cl)nc12` [Example 48, 4-(3-amino-1H-pyrazolo[4,3-b]pyridin-5-yl)-3-chloro-N-((1s,4s)-4-hydroxycyclohexyl)benzenesulfonamide] was run?
**A.** 2.02 µM

**Q.** For `Nc1n[nH]c2ccc(-c3ccc(S(=O)(=O)Nc4cccc(Cl)c4Cl)cc3Cl)nc12` [Example 56, 4-(3-amino-1H-pyrazolo[4,3-b]pyridin-5-yl)-3-chloro-N-(2,3-dichlorophenyl)benzenesulfonamide], which EC50 is on record?
**A.** 1.64 µM

**Q.** With `Nc1n[nH]c2ccc(-c3ccc(S(=O)(=O)N4CC[C@H](O)C4)cc3Cl)nc12` [Example 71, (S)-1-((4-(3-amino-1H-pyrazolo[4,3-b]pyridin-5-yl)-3-chlorophenyl)sulfonyl)pyrrolidin-3-ol] as the compound, how does the EC50 read?
**A.** 3.53 µM

**Q.** For `Cc1cc(S(=O)(=O)N[C@H]2C[C@H](O)C2)ccc1-c1ccc2[nH]nc(N)c2n1` [Example 77, 4-(3-amino-1H-pyrazolo[4,3-b]pyridin-5-yl)-N-((1r,3r)-3-hydroxycyclobutyl)-3-methylbenzenesulfonamide], which EC50 is on record?
**A.** 0.777 µM

**Q.** Which EC50 does the source give for `Cc1cc(S(=O)(=O)N[C@H]2CC[C@@](O)(C(F)(F)F)CC2)ccc1-c1ccc2[nH]nc(N)c2n1` [Example 68, 4-(3-amino-1H-pyrazolo[4,3-b]pyridin-5-yl)-N-((1r,4r)-4-hydroxy-4-(trifluoromethyl)cyclohexyl)-3-methylbenzenesulfonamide] here?
**A.** 0.354 µM

**Q.** `Nc1n[nH]c2ccc(-c3ccc(NS(=O)(=O)c4ccc(Cl)c(F)c4)cc3Cl)nc12` [Example 13, N-(4-(3-amino-1H-pyrazolo[4,3-b]pyridin-5-yl)-3-chlorophenyl)-4-chloro-3-fluorobenzenesulfonamide] was tested. Which EC50 did it give?
**A.** 1.34 µM

**Q.** Which EC50 does the source give for `Cc1cc(S(=O)(=O)N2CCC(CCO)C2)ccc1-c1ccc2[nH]nc(N)c2n1` (centres unmarked) [Example 83, 2-(1-((4-(3-amino-1H-pyrazolo[4,3-b]pyridin-5-yl)-3-methylphenyl)sulfonyl)pyrrolidin-3-yl)ethanol] here?
**A.** 5.33 µM

**Q.** With `CC1CCC(NS(=O)(=O)c2ccc(-c3ccc4[nH]nc(N)c4n3)c(Cl)c2)CC1` (centres unmarked) [Example 36, 4-(3-amino-1H-pyrazolo[4,3-b]pyridin-5-yl)-3-chloro-N-(4-methylcyclohexyl)benzenesulfonamide] as the compound, how does the EC50 read?
**A.** 0.414 µM

**Q.** `Cc1cc(S(=O)(=O)NC2CCCC(O)C2)ccc1-c1ccc2[nH]nc(N)c2n1` (centres unmarked) [Example 65, 4-(3-amino-1H-pyrazolo[4,3-b]pyridin-5-yl)-N-(3-hydroxycyclohexyl)-3-methylbenzenesulfonamide] was tested. Which EC50 did it give?
**A.** 0.122 µM

**Q.** With `CC(C)(C)NS(=O)(=O)c1ccc(-c2ccc3[nH]nc(N)c3n2)c(F)c1` [Example 75, 4-(3-amino-1H-pyrazolo[4,3-b]pyridin-5-yl)-N-tert-butyl-3-fluorobenzenesulfonamide] as the compound, how does the EC50 read?
**A.** 1.52 µM

Same assay, conditions: Mus musculus, 96 h; Table 1; TT-D6 Scx-luciferase cells, 1 ng/ml TGFβ1, four days; read-out: Scx-Luc (EC50 uM)

**Q.** With `CC1(C)CN(C(=O)c2ccc(-c3cccc4nc(NC(=O)C5CC5)nn34)cc2)C1` [reference compound] as the compound, how does the EC50 read?
**A.** 1.42 µM

**Q.** Which EC50 does the source give for `C[C@@H](O)c1nc2cnc3[nH]ccc3c2n1[C@@H]1CCCOC1` [reference compound] here?
**A.** 1.34 µM

**Q.** How did the EC50 turn out when `C[C@@H](O)c1nc2cnc3[nH]ccc3c2n1[C@H]1CC[C@H](C#N)CC1` [reference compound] was run?
**A.** 2.69 µM

**Q.** For `C1=C/COCc2cc(ccc2OCCN2CCCC2)Nc2nccc(n2)-c2cccc(c2)COC/1` [reference compound], which EC50 is on record?
**A.** 1.06 µM

Same assay, conditions: Mus musculus; further compounds not numbered as examples; read-out: EC50 in the Scx-Luc assay

**Q.** How did the EC50 turn out when `Nc1n[nH]c2ccc(-c3ccc(S(=O)(=O)N4CCC[C@H]4CO)cc3Cl)nc12` [(S)-(1-((4-(3-amino-1H-pyrazolo[4,3-b]pyridin-5-yl)-3-chlorophenyl)sulfonyl)pyrrolidin-2-yl)methanol] was run?
**A.** > 10 µM
